Tests used:
[1] = test system: Human skeletal muscle satellite (HSkMS) cells; test: Proliferation of human skeletal muscle satellite cells (cell count by hemocytometer, serum and growth factor starvation); format: cell-based; details: 24 hours, in comparison with serum starvation (FIG. 1)
Description: Human skeletal muscle satellite (HSkMS) cells were prepared to identify whether proliferation of skeletal muscle satellite cells is promoted by sulfonamide compounds.
The seeded HSkMS cells were cultured at 37° C. in a 5% CO2 incubator for 24 hours. Then, 0.1 μM, 1 μM, and 10 μM of each of sulfadiazine (Sigma-Aldrich), sulfamethoxazole (Sigma-Aldrich), sulfadoxine (Sigma-Aldrich), and sulfaguanidine (Sigma-Aldrich), as sulfonamide compounds, were added to the HSkMS cells, and the cells were incubated at 37° C. in a 5% CO2 incubator for 24 hours. After the incubation, the numbers of HSkMS cells were calculated using a hemocytometer.

MuRF-1 = MuRF-1 mRNA expression in differentiated C2C12 cells treated with dexamethasone (real time PCR); format: cell-based, mouse; details: sulfadiazine (1, 10 or 100 μM) 24 hours, then 2 μM dexamethasone 24 hours, vs. dexamethasone only (FIG. 2B)
Description: (§1) C2C12 cell lines (mouse gastrocnemius muscle, ATCC® CRL-1772™) were seeded in a 10% FBS/DMEM and incubated at 37° C. in a 5% CO2 incubator. When the cells were 70% confluent, the culture medium was replaced with 2% FBS/DMEM and the cells were cultured for 4 days to completely induce differentiation into muscle cells. C2C12 cell lines are mouse myoblast cell lines obtained by continuous culture of myoblast cells cultured from gastrocnemius muscle of C3H mice.
(§2) When C2C12 cells were completely differentiated into muscle cells, the culture medium was removed therefrom, and 4 ml of a fresh culture medium including 1 μM, 10 μM, or 100 μM of sulfadiazine (Sigma Aldrich) was added thereto, and then, the cells were cultured at 37° C. in a 5% CO2 incubator for 24 hours. […]
(§3) A Trizol reagent (Invitrogen) was added to the collected cells, and total RNA was separated therefrom according to manufacturer's protocols. […] Amounts of mRNA of Atrogin-1 and MuRF-1 were quantified using a real time PCR device (MyiQPCR instrument, BioRad) that is a device measuring SYBR Green. […]
(§4) Values obtained via amplification were normalized to GAPDH gene expression, and relative expression levels of mRNA of Atrogin-1 and MURF-1 were quantified. The quantified relative expression levels (arbitrary unit (AU)) of mRNA of Atrogin-1 and MURF-1 are illustrated in FIGS. 2A and 2B, respectively (*: p<0.05 vs. dexamethasone)

Atrogin-1 = Atrogin-1 mRNA expression in differentiated C2C12 cells treated with dexamethasone (real time PCR); format: cell-based, mouse; details: sulfadiazine (1, 10 or 100 μM) 24 hours, then 2 μM dexamethasone 24 hours, vs. dexamethasone only (FIG. 2A)
Description: as §1, §2, §3, §4

SMILES | proliferation of the HSkMS cells ([1]; 10 μM) | expression of mRNA of MuRF1 (MuRF-1) | proliferation of the HSkMS cells ([1]; 1 μM) | expression of mRNA of Atrogin-1 (Atrogin-1)
Cc1cc(NS(=O)(=O)c2ccc(N)cc2)no1 [sulfamethoxazole] | promoted in all groups, in comparison with serum starvation, except for the groups | – | – | –
Nc1ccc(S(=O)(=O)Nc2ncccn2)cc1 [sulfadiazine] | promoted in all groups, in comparison with serum starvation, except for the groups | decreased | promoted in all groups, in comparison with serum starvation, except for the groups | decreased
NC(N)=NS(=O)(=O)c1ccc(N)cc1 [sulfaguanidine] | promoted in all groups, in comparison with serum starvation, except for the groups | – | – | –

Source: patent US20160158251A1, “COMPOSITION FOR PREVENTING OR TREATING MUSCULAR ATROPHY OR PROMOTING MUSCULAR REGENERATION IN SUBJECT COMPRISING SULFONAMIDE COMPOUND AND USE THEREOF” (Samsung Electronics Co., Ltd., priority 2014, published 2016)
